“Also recorded” adds a separate entry of the source.

Experiment [1] has as its system young patients with an aggressive rate of aortic growth. Kind of experiment: Losartan in young patients with aggressive rate of aortic growth despite standard therapy. It is filed as in vivo, human. Particulars: n=8, despite β-adrenergic/ACE blockade, monopotassium salt. As to the method: (§1) Markers of TGFβ antagonism have included reduced plasma levels of free TGFβ, reduced intracellular initiation of the TGFβ signaling cascade, and reduced tissue expression of TGFβ-responsive genes. […] Three independent measurements of the aortic root were made from the long axis echo view in systole at each of 3 time points (baseline, 2 and 4 months of treatment; FIG. 8A). All analyses were performed blinded to genotype and treatment arm. […] This represents the first therapeutic strategy for MFS that derives from interrogation of disease pathogenesis and the first possibility for primary prevention of disease manifestations.

Experiment [2] deals with mdx mice. As to the kind of experiment: Forelimb and hindlimb grip strength and fatigue in mdx mice. It is filed as in vivo, mouse. As to the method: (§2) Mice were continued on oral therapy for 6 months and sacrificed. […] Age-matched wild-type and mdx mice (placebo-treated) served as a control group. After 6 months of treatment, forelimb and hindlimb grip strength was assessed using an automated grip strength meter (Columbus Instruments, Columbus, Ohio). The experiments for forelimb and hindlimb grip strength testing were conducted at different days allowing for a minimum recovery period of 10 days. Total peak force (in Newtons) was determined by an electronic strain gauge as previously described and corrected for body weight (Wagner, K. R., et al. (2002) Ann Neurol 52, 832-6). Five measurements within 2 minutes were taken from each animal. The three highest measurements for each animal were averaged to give the strength score. The degree of fatigue was calculated by comparing the first two pulls to the last two pulls with the decrement between pulls 1+2 and pulls 4+5 providing a measure of fatigue. Similarly, functional measurements were performed in 6 month old fibrillin-1 deficient mice (Fbn1^mgR) (Pereira, L. et al. (1997) Nat Genet. 17, 218-22) after 5 months of treatment.

For experiment [3], the system named is C1039G/+ mice. Kind of experiment: Aortic root growth by echocardiography in C1039G/+ mice, 4 months of treatment. Type of experiment: in vivo, mouse. As to the method:
as §1

In experiment [4] the test system is mdx mice. Kind of experiment: Long-term losartan in mdx mice: fibrosis and centrally located nuclei in diaphragm and gastrocnemius. Type of experiment: in vivo, mouse. The protocol: as §2
For morphometric analyses, skeletal muscle was flash frozen in cooled isopentane and mounted in Tragacanth (Sigma Aldrich, USA). Subsequently, 10 μm sections were stained with hematoxylin and eosin. Muscle fibers were counted in a defined area (9 mm^2) of the tibialis anterior muscle of 10-day-old wild-type (n=3) and Fbn1C1039G/C1039G mice (n=6) and fiber diameter was determined by measuring the shortest fiber axis within cross-sections of the tibialis anterior muscle, counting a total of 850-1500 fibers. The cross sectional area of undamaged and regenerating myofibers of the tibialis anterior muscle from wild-type and Fbn1^C1039G/+ mice was expressed as a distribution of the percentage of the total number of myofibers analyzed (850-1500) (Horsley, V. et al (2003) Cell 113, 483-94). Sections of skeletal muscle were taken along the same anatomical region of the mid-belly of the tibialis anterior muscle. The number of c-met, M-cadherin- and myogeninpositive cells in 50 fields of the tibialis anterior muscle mid-belly area was scored using the x40 objective. At least six animals per genotype were scored and all analyses were performed by investigators blinded to genotype and treatment group. All images were taken using an Eclipse E400 microscope (Nikon Inc.) and cross-sectional area measurements were determined using IPLAB software (Scanalytics, Fairfax, Va.). Neonatal myosin-positive fibers after cardiotoxin challenge were quantified by counting 900-1240 fibers per toxin-challenged muscle (n=4). For quantification of fibrotic tissue formation in toxin challenged mice (n=4), immunofluorescent staining for vimentin was performed. Five sections throughout the entire tibialis anterior muscle were analyzed at low magnification and vimentin positive areas were calculated as a percentage of the total muscle area using the NIH Scion image software, public domain. Similarly, van-Gieson and vimentin stained sections were used to delineate the percentage of fibrotic versus total muscle area in diaphragm and gastrocnemius of long-term losartan-treated, placebo-treated mdx and wild-type mice (n=6 each group) using the NIH Scion software. For evaluation of percent centrally located nuclei a total of 1100-1300 muscle fibers per diaphragm of each mouse (n=6, each group) and a total of 1900-2200 muscle fibers per gastrocnemius of each mouse (n=6, each group) were calculated.

As to `CCCCc1nc(Cl)c(CO)n1Cc1ccc(-c2ccccc2-c2nnn[nH]2)cc1.[K]` [losartan, 2-butyl-4-chloro-1-[p-(o-1H-tetrazol-5-ylphenyl)benzyl]imidazole-5-methanol monopotassium salt], the entries for the “Response of aortic growth in patients” value in experiment [1] (listed as Losartan) and in experiment [1] were “effective” and “remarkable response”, respectively. The “Forelimb grip strength (peak force), male” value in experiment [2] (6 months of losartan, untreated mdx 1.25±0.15) is 1.64±0.29 N. Further, the “Forelimb grip strength (peak force), female” value in experiment [2] (6 months of losartan, untreated mdx 1.32±0.12) was 1.41±0.15 N. Moreover, the “Hindlimb grip strength (peak force), female” value in experiment [2] (6 months of losartan, untreated mdx 1.39±0.14) was determined as 1.79±0.14 N. Moreover, the “Hindlimb grip strength (peak force), male” value in experiment [2] (6 months of losartan, untreated mdx 1.45±0.19) is given as 1.89±0.23 N. Moreover, in experiment [2] (6 months of losartan, untreated mdx 34.7±5.7), the “Muscle fatigue, forelimb test, female” value is on record as 15.2±6%. In experiment [2] (6 months of losartan, untreated mdx 36.3±6.5), the “Muscle fatigue, forelimb test, male” value was 16.3±5%. Moreover, the “Muscle fatigue, hindlimb test, female” value in experiment [2] (6 months of losartan, untreated mdx 37.6±6) worked out at 17.1±4%. Besides, the “Muscle fatigue, hindlimb test, male” value in experiment [2] (6 months of losartan, untreated mdx 39.5±6) is listed as 16.2%±5. Further, the “Muscle fatigue in response to repetitive challenge, in words” value in experiment [2] (6 months of treatment) is listed as “significantly less muscle fatigue”. Besides, the “Grip strength versus untreated mdx mice, in words” value in experiment [2] (6 months of treatment, male and female) was “increased forelimb and hindlimb grip strength”. In addition, the “Aortic growth during the 4 months of treatment” value in experiment [3] (C1039G/+ mice from 7 weeks of age, losartan 50 mg/kg or propranolol 40 mg/kg, aortic root, echo, placebo 0.44±0.09) worked out at 0.03±0.07 mm. Further, the “Aortic growth / protection, in words” value in experiment [3] (C1039G/+ mice, compared with wild-type or with losartan) was “indistinguishable from that seen in wild-type mice”. The “Muscle fibers containing centrally located nuclei, diaphragm and gastrocnemius, in words” value in experiment [4] (6 months of losartan) was “increased percentage”. In addition, in experiment [4] (6 months of losartan, mdx 25±5, wild-type 2±0.5), the “Centrally located nuclei, gastrocnemius” value is 36%±+6. Also, the “Fibrotic area, diaphragm” value in experiment [4] (6 months of losartan, mdx 32±5, wild-type 4±1) is 18%±4. In experiment [4] (6 months of losartan, mdx 35±5, wild-type 2±0.5), the “Percentage of centrally located nuclei, diaphragm” value is on record as 48%±6. Moreover, the “Fibrosis, gastrocnemius” value in experiment [4] (6 months of losartan, mdx 75±6.4, wild-type 4±2) is given as 89%±5.8. Also, the “Myopathic disease progression / steady-state architecture in mdx mice” value in experiment [4] (long-term losartan, 9 month-old mdx mice, monopotassium salt) is “significant attenuation of disease progression; also recorded: improved steady-state architecture; also recorded: attenuates myopathic disease progression”.

The values are drawn from US8597646B2, “Methods and compositons featuring TGF-beta antagonists for the treatment of marfan syndrome and associated disorders” (The Johns Hopkins University, priority 2005, dated 2013).
